Assay results published in ChEMBL document CHEMBL3352361, “Design and synthesis of coumarin-3-acylamino derivatives to scavenge radicals and to protect DNA” (Eur J Med Chem, 2014).

Key:
Format in all cases: physicochemical
[1] = Antioxidant activity assessed as inhibition time period for protection against AAPH-induced DNA oxidation at 37 degC by TBARS method
[2] = Antioxidant activity assessed as protection against Cu2+/GSH-induced DNA oxidation at 150 uM up to 180 mins by TBARS method; details: 3 h
[3] = Antioxidant activity assessed as OH-induced DNA oxidation at 150 uM by TBARS method

| Time [1] | inhibition (INH) [2] | Activity [3] | SMILES |
| --- | --- | --- | --- |
| 0.82 min | Active | 78.8% | O=C(O)c1cc2ccc(O)cc2oc1=O |
| 2.92 min | Active | 86.5% | COc1cc2cc(C(=O)O)c(=O)oc2cc1O |
| 1.28 min | Not Active | 76.4% | O=C(NCCc1ccc(O)cc1)c1cc2ccccc2oc1=O |
|  | Not Active | 75.3% | O=C(NCCc1ccccc1)c1cc2ccc(O)cc2oc1=O |
|  | Not Active | 71.5% | O=C(NCCc1ccc(O)cc1)c1cc2ccc(O)cc2oc1=O |
| 1.61 min | Not Active | 73.6% | COc1cc2cc(C(=O)NCCc3ccccc3)c(=O)oc2cc1O |
| 7.43 min | Not Active | 68.1% | COc1cc2cc(C(=O)NCCc3ccc(O)cc3)c(=O)oc2cc1O |
|  | Active | 72.9% | O=C(NCCc1ccccc1)c1cc2ccccc2oc1=O |
|  | Active | 82.6% | O=C(O)c1cc2ccccc2oc1=O [COUMARIN-3-CARBOXYLIC ACID] |
